Source: PMC10341698, “Identification of Anti-Influenza A Compounds Inhibiting the Viral Non-Structural Protein 1 (NS1) Using a Type I Interferon-Driven Screening Strategy” (International Journal of Molecular Sciences, 2023)

Tests used:
NS1 = settings: cited from earlier work
A(H1N1)pdm09 NS1 [1] = assay: IFN-β promoter luciferase screening of the diverse library (glow type); format: cell-based, A(H1N1)pdm09 influenza virus; settings: HEK 293 cells; for increase of IFN-β promoter stimulation: 50 μM, 42 h treatment, glow luciferase, single experiment
A(H1N1)pdm09 NS1 [2] = assay: Confirmation in the IFN-β luciferase system (flash type); format: cell-based, A(H1N1)pdm09 influenza virus; settings: HEK 293 cells, 50 μM
[3] = test system: IFN-β promoter luciferase reporter; format: cell-based, human
IFN-β mRNA = assay: qRT-PCR of IFN-β mRNA in infected A549 cells; format: cell-based, human; settings: A/PR/8/34(H1N1)-infected A549 cells, 24 h p.i., normalized with GAPDH and HAU
RNase L mRNA = assay: qRT-PCR of RNase L mRNA in infected A549 cells; format: cell-based, human; settings: A/PR/8/34(H1N1)-infected A549 cells, 24 h p.i., normalized with GAPDH and HAU
2′5′ OAS mRNA = assay: qRT-PCR of OAS mRNA in infected A549 cells; format: cell-based, human; settings: A/PR/8/34(H1N1)-infected A549 cells, 24 h p.i., normalized with GAPDH and HAU
PKR mRNA = assay: qRT-PCR of PKR mRNA in infected A549 cells; format: cell-based, human; settings: A/PR/8/34(H1N1)-infected A549 cells, 24 h p.i., normalized with GAPDH and HAU
[4] = test system: influenza virus A/PR/8/34(H1N1); settings: A549 cells; for reduction of viral replication: 50 µM, 3 h before infection, MOI 0.1, 24 h p.i., HAU
in vitro = settings: human
Experimental: (§1) Cytotoxic concentration to cause death to 50% of viable cells (CC50) was calculated by neutral red uptake assay (NRU) assay [64]. In brief, 1 × 10^4 A549 cells were seeded in 96-well plates and exposed to different concentrations of cpds 157, 164 (25, 50, 100, 200, and 400 μM) or equivalent volumes of DMSO as a control for 48 h. At the end of the exposure time, cells were washed with phosphate-buffered saline (PBS) before being incubated for 3 h in a medium supplemented with neutral red (50 μg/mL). The medium was washed off rapidly with PBS, and cells were incubated for a further 15′ at R.T. in a mixture of 1% acetic acid and 50% ethanol to extract the dye. Absorbance was then measured at 540 nm using a micro-plate reader (Biorad). Neutral red powder was purchased from Sigma-Aldrich. The percentage of cell death for each compound concentration, compared to the corresponding DMSO amount in untreated controls (y-axis), was plotted against increasing cpd concentrations (x-axis). Data were transformed in log scale [x = log(x)], and a linear regression analysis was used to calculate the CC50 concentration.

[5] = test system: influenza virus A/PR/8/34(H1N1); assay: microbe, parasite or virus in culture; settings: unidentified influenza virus, A549, 24 h
A549 cells = settings: human, 48 h
Experimental: as §1

| SMILES | EC50 (NS1) | increase of IFN-β promoter stimulation (A(H1N1)pdm09 NS1 [1]) | restoration of the luciferase signal (A(H1N1)pdm09 NS1 [2]) | non-specific activity on the reporter, alone or with IFN inducer, without NS1 [3] | fold increase in IFN-β mRNA accumulation (IFN-β mRNA) | fold increase for RNase L (RNase L mRNA) | fold increase for 2′5′ OAS (2′5′ OAS mRNA) | fold increase for PKR (PKR mRNA) | therapeutic index (CC50/IC50) [4] | reduction of viral replication [4] | CC50 at 48 h (in vitro) | IC50 [5] | CC50 (A549 cells) | IFN-β promoter assay with the reference NS1 inhibitor (A(H1N1)pdm09 NS1 [1]; 5 μM) |
| --- | --- | --- | --- | --- | --- | --- | --- | --- | --- | --- | --- | --- | --- | --- |
| Nc1ccccc1C(=O)NCCCc1ccccc1 [A22] | ~50 nM |  |  |  |  |  |  |  |  |  |  |  |  |  |
| CCc1ccc(NC(=O)COC(=O)c2ccc3ccccc3n2)cc1 [Compound 157] |  | at least 50% | significant restoration of the luciferase signal | without showing non-specific activities | 2.7 fold | 2.5 fold | 2.3 fold | 4.5 fold | > 7.8 | 50% | > 400 µM | 51.6 µM |  |  |
| O=C(CSc1nnnn1-c1ccccc1)NCc1ccccc1 [Compound 164] |  | at least 50% | significant restoration of the luciferase signal | without showing non-specific activities | 3.2 fold | 2.3 fold | 1.7 fold | 1.7 fold | 3.6 | 60% | > 150 µM | 46.4 µM | 169 µM |  |
| O=C(NCCCc1ccccc1)c1ccccc1O [JJ3297, reference compound] | 800 nM |  |  |  |  |  |  |  |  |  |  |  |  | specificity of the IFN-β promoter assay was also confirmed |
| O=C(N/N=C/c1ccc2c(c1)CCC2)c1ccccc1O [NSC125044] | 8000 nM |  |  |  |  |  |  |  |  |  |  |  |  |  |
